The text below walks through data of PubChem BioAssay (NCI).

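Dose response: 5 concentrations. Exposure: 48 h. Format: 96-well plates. Endpoint: linear interpolation; highest concentration if not reached. At the GI50, growth is halved. TGI: total growth inhibition.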

Among the test systems are SF-539 CNS; NCI-H23 lung; NCI/ADR-RES ovarian; M14 melanoma; KM12 colon; SK-OV-3 ovarian; ACHN renal; RXF 393 renal; HCT-116 colon; HOP-62 NSCLC.
Common to all, as to assay: NCI-60 cell line screen, 48 h

With `CN(C)CCCNC(=O)c1ccc2oc3cc4ccccc4c(=O)n3c2c1`, the GI50 in the assay on SF-539 CNS was 13600 nM; in the assay with NCI-H23 lung, 17.9 µM; with NCI/ADR-RES ovarian, over 50 µM; with M14 melanoma, 30300 nM; in the assay with KM12 colon, 18.5 µM; in the assay on SK-OV-3 ovarian, over 50 µM. The GI50 was 11800 nM in the assay with ACHN renal, 41600 nM in the assay with RXF 393 renal, 30800 nM in the assay with HCT-116 colon and over 50000 nM in the assay with HOP-62 NSCLC. The TGI with SF-539 CNS is 30.5 µM; in the assay with NCI-H23 lung, over 50 µM; in the assay on NCI/ADR-RES ovarian, over 50 µM; in the assay with M14 melanoma, over 50 µM; with KM12 colon it was over 50 µM; in the assay with SK-OV-3 ovarian, over 50 µM. Moreover, the TGI is over 50 µM in the assay with ACHN renal, over 50 µM in the assay with RXF 393 renal, over 50000 nM in the assay on HCT-116 colon and over 50 µM with HOP-62 NSCLC.

For the compound `COC(=O)[C@H]1C(=O)[C@@]2(C)[C@H]([C@H](OC(=O)c3ccccc3)[C@]3(O)C[C@H](OC(=O)[C@H](O)[C@@H](NC(=O)c4ccc(F)cc4)c4ccccc4)C(C)=C1C3(C)C)[C@]1(OC(C)=O)CO[C@@H]1C[C@@H]2O`, the GI50 in the assay with SF-539 CNS is 7.49 nM; with NCI-H23 lung, 0.0202 µM; in the assay on NCI/ADR-RES ovarian, 4.61 µM; with M14 melanoma, 11.4 nM; in the assay with KM12 colon it was 0.00629 µM; with SK-OV-3 ovarian, 0.0115 µM. Also, the GI50 was 1600 nM in the assay with ACHN renal, 15.2 nM with RXF 393 renal, 4.32 nM in the assay on HCT-116 colon and 11.2 nM in the assay with HOP-62 NSCLC. Also, the TGI in the assay with SF-539 CNS is 0.0753 µM; in the assay on NCI-H23 lung, over 25 µM; in the assay with NCI/ADR-RES ovarian, over 25 µM; in the assay with M14 melanoma, 0.105 µM; in the assay on SK-OV-3 ovarian, over 25 µM; in the assay on ACHN renal, over 25 µM. Further, the TGI in the assay on RXF 393 renal was over 25 µM; with HCT-116 colon, over 25000 nM; with HOP-62 NSCLC, over 6.58 µM.

Turning to `CC(C)CCSC1=CC(=O)c2ccccc2C1=O`, the GI50 in the assay with SF-539 CNS was 5740 nM; in the assay on NCI-H23 lung, 14.5 µM; in the assay with NCI/ADR-RES ovarian, 8.75 µM; with M14 melanoma it was 15600 nM; with KM12 colon it was 7.36 µM; in the assay on SK-OV-3 ovarian, 26.1 µM. Further, the GI50 with ACHN renal is 1840 nM; with RXF 393 renal, 5060 nM; in the assay on HCT-116 colon it was 1420 nM; with HOP-62 NSCLC, 23500 nM. Also, the TGI in the assay on SF-539 CNS is 22.7 µM; in the assay with NCI-H23 lung, 34.7 µM; in the assay on NCI/ADR-RES ovarian, 40.1 µM; in the assay on M14 melanoma, 33.4 µM; with KM12 colon, 21.5 µM; in the assay on SK-OV-3 ovarian it was over 81.2 µM. Further, the TGI with ACHN renal is 5.69 µM; in the assay on RXF 393 renal, 16.3 µM; in the assay with HCT-116 colon it was 2890 nM; in the assay with HOP-62 NSCLC, over 59.1 µM.

Consider `NC(=O)C1c2ccccc2C=Cc2ccccc21`, for which the GI50 in the assay with SF-539 CNS was over 100000 nM; in the assay on NCI-H23 lung, over 100 µM; with NCI/ADR-RES ovarian, over 100 µM; in the assay with M14 melanoma it was over 100000 nM; in the assay on KM12 colon, over 100 µM; in the assay on SK-OV-3 ovarian, over 100 µM. The GI50 in the assay with ACHN renal, in the assay on RXF 393 renal, with HCT-116 colon and in the assay with HOP-62 NSCLC was over 100000 nM each time. Further, the TGI in the assay on SF-539 CNS, with NCI-H23 lung, in the assay on NCI/ADR-RES ovarian, with M14 melanoma, in the assay on KM12 colon and with SK-OV-3 ovarian was over 100 µM throughout. Also, the TGI with ACHN renal was over 100 µM; with RXF 393 renal it was over 100 µM; in the assay with HCT-116 colon, over 100000 nM; with HOP-62 NSCLC it was over 100 µM.

As to `O=C1/C(=C\c2ccc(F)cc2)CN(C(=O)c2ccc([N+](=O)[O-])cc2)C/C1=C\c1ccc(F)cc1`, the GI50 in the assay with SF-539 CNS is 2930 nM; with NCI-H23 lung, 3.6 µM; in the assay on NCI/ADR-RES ovarian it was 3.65 µM; with M14 melanoma, 2280 nM; with KM12 colon, 0.568 µM; with SK-OV-3 ovarian it was 3.7 µM. Besides, the GI50 with ACHN renal was 2460 nM; in the assay on RXF 393 renal, 1530 nM; with HCT-116 colon, 210 nM; with HOP-62 NSCLC, 2560 nM. The TGI in the assay on SF-539 CNS is 10.2 µM; with NCI-H23 lung, 15.6 µM; in the assay with NCI/ADR-RES ovarian, over 100 µM; with M14 melanoma it was 6.81 µM; in the assay on KM12 colon, 2.19 µM; in the assay with SK-OV-3 ovarian, 26.8 µM. The TGI with ACHN renal was found to be 7.49 µM; with RXF 393 renal, 3.19 µM; in the assay with HCT-116 colon it was 448 nM; with HOP-62 NSCLC it was 7.85 µM.

In the case of `Cc1ncc(C(=O)Nc2ccc(CN3CCN(C)CC3)c(C(F)(F)F)c2)cc1C#Cc1cnc(N)c2cnccc12`, the GI50 in the assay on SF-539 CNS was 193 nM; in the assay with NCI-H23 lung, 0.0873 µM; in the assay on NCI/ADR-RES ovarian it was 6.68 µM; in the assay with M14 melanoma, 22.5 nM; in the assay on SK-OV-3 ovarian it was 0.162 µM; in the assay with ACHN renal, 133 nM. For the same compound, the GI50 was 70.6 nM with RXF 393 renal, 43.4 nM in the assay on HCT-116 colon and 85.4 nM in the assay with HOP-62 NSCLC. For the same compound, the TGI worked out at 1.29 µM in the assay with SF-539 CNS; 10.5 µM with NCI-H23 lung; 23.9 µM with NCI/ADR-RES ovarian; 0.17 µM in the assay with M14 melanoma; 11.2 µM in the assay on KM12 colon; 0.763 µM in the assay with SK-OV-3 ovarian. Further, the TGI in the assay on ACHN renal came to 1.03 µM; in the assay with RXF 393 renal, 0.399 µM; in the assay with HCT-116 colon, 1230 nM; in the assay on HOP-62 NSCLC it was 1.34 µM.
